# Reference: patent publication US20230149374A1, “METHODS AND COMPOSITIONS FOR TREATING ATHEROSCLEROSIS” (Sanford Burnham Prebys Medical Discovery Institute, priority 2021, published 2023)
# “Also recorded” adds a separate entry of the source.
# Key:
# ApoE-deficient mice [1] = assay: Quantitative PCR of transcript levels in the abdominal aorta; assay type: in vivo, mouse; conditions: 30 mg/kg/day, 25 weeks, vs control
# From the text: (§1) Four cohorts of mice were used in these studies (FIGS. 8A and 9A). Cohorts 1 and 2 were devoted to the in vivo and ex vivo characterization of TNAP-associated plaque calcification. 6-week-old ApoE-deficient male mice were received at the animal facility and placed in conventional cages with 5 mice per cage. Mice were maintained on a 12-hrs light-dark cycle (7:00 am-7:00 pm) and were supplied with food and water ad libitum. From 10 weeks of age, they were fed ad libitum with a high fat diet (HFD, D12108C, Research Diets, New Brunswick, USA) containing 40% fat (kcal) and 1.25% cholesterol (weight). In cohort 1, 8 mice were sacrificed every 2 weeks between weeks 17 to 31, for histological and molecular analyses. Total body weight was measured weekly after starting the HFD. The sacrifice was done after anesthesia with isoflurane and intracardiac blood puncture by CO2 inhalation. Tissues were harvested as described below. The abdominal aorta was used for quantitative polymerase chain reaction (PCR) analyses. Mice from cohort 2 were used to analyze aorta calcification with ^18F—NaF μPET and μCT and to compare the in vivo data with the ex vivo results obtained in cohort 1. Animals were transferred from the animal facility to the Cermep imaging platform. Cohorts 3 and 4 were used to determine in vivo and ex vivo the impact of TNAP inhibition on the vasculature, liver, bones, and kidneys. According to the results obtained in cohorts 1 and 2, TNAP inhibitor SBI-425 (30 mg/kg/day, formulated as a food admixture in the HFD) was administered in a preventive manner from 10 weeks of age. Treatment was stopped at 25 weeks or 31 weeks of age. Plaque calcification was analyzed at 25 weeks, and possible side effects of TNAP inhibition were explored in mice aged 31 weeks. Mice in cohort 3 (2 groups of 13 mice) were used for ex vivo analysis, and mice in cohort 4 (2 groups of 12 mice) for in vivo imaging and ex vivo analyses.
# Mouse tissues: total RNAs were extracted from grinded abdominal aorta with the NucleoSpin RNA II kit (Macherey-Nagel) following the manufacturers' protocol. The quantity and quality of RNA were determined using a NanoDrop. RNA (1 μg) was retro-transcribed into cDNA with Superscript II reverse transcriptase (Life Technologies). PCR analysis was conducted using SYBR green Supermix (Biorad) on the iCycler Real-Time Detection system (Biorad). Fold change in mRNA expression was calculated using the 2^−Δcq method by the CFX Manager software (Biorad). Data were normalized by 3 housekeeping genes (HPRT, Actin and Rpl13a) levels.
# ApoE-deficient mice [2] = assay: Tolerability: mortality and body weight; assay type: in vivo, mouse; conditions: 30 mg/kg/day, treatment up to 21 weeks
# From the text: as §1, with “Cohorts 3 and 4 were used to determine in vivo and ex vivo the impact of TNAP inhibition on the vasculature, liver, bones, and kidneys. According to the results obtained in cohorts 1 and 2, TNAP inhibitor SBI-425 (30 mg/kg/day, formulated as a food admixture in the HFD) was administered in a preventive manner from 10 weeks of age. Treatment was stopped at 25 weeks or 31 weeks of age.” left out, “Mice in cohort 3 (2 groups of 13 mice) were used for ex vivo analysis, and mice in cohort 4 (2 groups of 12 mice) for in vivo imaging and ex vivo analyses.” left out
# ApoE-deficient mice [3] = assay: Bone architecture by micro-CT of the femur; assay type: in vivo, mouse; conditions: 30 mg/kg/day, treatment up to 21 weeks (31 weeks of age)
# From the text: as §1, with “Cohorts 3 and 4 were used to determine in vivo and ex vivo the impact of TNAP inhibition on the vasculature, liver, bones, and kidneys. According to the results obtained in cohorts 1 and 2, TNAP inhibitor SBI-425 (30 mg/kg/day, formulated as a food admixture in the HFD) was administered in a preventive manner from 10 weeks of age. Treatment was stopped at 25 weeks or 31 weeks of age.” left out, “Mice in cohort 3 (2 groups of 13 mice) were used for ex vivo analysis, and mice in cohort 4 (2 groups of 12 mice) for in vivo imaging and ex vivo analyses.” left out
# ApoE-deficient mice [4] = assay: In vivo aortic calcification imaging, 18F-NaF μPET / μCT; set-up: species or system mouse; conditions: ApoE-deficient mice on HFD, 30 mg/kg/day in food from 10 to 25 weeks of age; control 6 out of 11
# From the text: Four cohorts of mice were used in these studies (FIGS. 8A and 9A). Cohorts 1 and 2 were devoted to the in vivo and ex vivo characterization of TNAP-associated plaque calcification. 6-week-old ApoE-deficient male mice were received at the animal facility and placed in conventional cages with 5 mice per cage. Mice were maintained on a 12-hrs light-dark cycle (7:00 am-7:00 pm) and were supplied with food and water ad libitum. From 10 weeks of age, they were fed ad libitum with a high fat diet (HFD, D12108C, Research Diets, New Brunswick, USA) containing 40% fat (kcal) and 1.25% cholesterol (weight). In cohort 1, 8 mice were sacrificed every 2 weeks between weeks 17 to 31, for histological and molecular analyses. Total body weight was measured weekly after starting the HFD. The sacrifice was done after anesthesia with isoflurane and intracardiac blood puncture by CO2 inhalation. Tissues were harvested as described below. The abdominal aorta was used for quantitative polymerase chain reaction (PCR) analyses. […] Plaque calcification was analyzed at 25 weeks, and possible side effects of TNAP inhibition were explored in mice aged 31 weeks. […]
# Mice were placed into a chamber connected to an isoflurane anesthesia unit. […] Images were analyzed using Inveon Research workplace (Siemens). The presence of atherosclerotic plaques was evaluated both in CT and PET images. […]
smiles,measurement,setting,value
COc1ccc(Cl)cc1S(=O)(=O)Nc1cncc(C(N)=O)c1 [SBI-425],"Acan transcript level (chondrocyte marker), abdominal aorta",ApoE-deficient mice [1],not accompanied by reduced levels
same,"Alpl transcript level (chondrocyte marker), abdominal aorta",ApoE-deficient mice [1],not accompanied by reduced levels
same,"Cd68 transcript level (inflammatory marker), abdominal aorta",ApoE-deficient mice [1],significantly decreased
same,"Il6 transcript level (inflammatory marker), abdominal aorta",ApoE-deficient mice [1],significantly decreased
same,"Il8 transcript level (inflammatory marker), abdominal aorta",ApoE-deficient mice [1],significantly decreased
same,"Opn transcript level (inflammatory marker), abdominal aorta",ApoE-deficient mice [1],significantly decreased
same,"Rankl transcript level (inflammatory marker), abdominal aorta",ApoE-deficient mice [1],significantly decreased
same,"Runx2 transcript level (chondrocyte marker), abdominal aorta",ApoE-deficient mice [1],not accompanied by reduced levels
same,"Sox9 transcript level (chondrocyte marker), abdominal aorta",ApoE-deficient mice [1],not accompanied by reduced levels
same,body weight,ApoE-deficient mice [2],no effect; also recorded: did not significantly change
same,mortality,ApoE-deficient mice [2],no effect
same,bone architecture,ApoE-deficient mice [3],no effect; also recorded: did not significantly change
same,"mice having calcifications, in vivo 18F-NaF μPET and μCT",ApoE-deficient mice [4],0 out of 12
